These results are taken from patent US20120064174A1, “METHOD FOR STIMULATING HAIR GROWTH” (LEGACY HEALTHCARE HOLDING LTD., priority 2010, published 2012).

Values joined by “and” are separate entries in the source; they are usually repeats but may differ in a detail not shown here. Equal values may be shown once.

The assay relates to scalp of male volunteers. Nature of the assay: Double-blind placebo-controlled clinical study, hair diameter measurement by hair clipping. The note with it: after 32-51 days of treatment, one volunteer per row. It counts as in vivo, human. As to the method: […] The male volunteers had been under treatment of a 5-alpha-reductase inhibitor treatment (Finasteride 1 mg) started within the last 3 months, or for the last three years. The first objective is to assess if the hair diameter of volunteers under a 5-alpha-reductase inhibitor (Finasteride 1 mg) and Cellium (TRADEMARK) GC 210 mg/mL is higher than on volunteers under a 5-alpha-reductase inhibitor (Finasteride 1 mg) and placebo only. The hair diameters were compared using a starting or initial hair diameter measurement and a post-study hair diameter measurement as quantified later herein. The second objective is to evaluate the cosmetic acceptance in the studied population. A prospective, double-blind, monocentric, randomized testing along with a placebo testing is conducted with two parallel groups. […] Information on self-assessed effectiveness, appreciation, and overall satisfaction was solicited from volunteers using a questionnaire. […] Exemplary secondary criteria include photographic documentation for qualitative purposes and also self-assessed effectiveness, appreciation, and overall satisfaction as indicated by a questionnaire given to participants. […]

As to `CC(C)(C)NC(=O)[C@H]1CC[C@H]2[C@@H]3CC[C@H]4NC(=O)C=C[C@]4(C)[C@H]3CC[C@]12C` [Finasteride + Placebo, Finasteride], the “Variation of diameter (in %)” value (relative to first diameter) is 4.4% and −0.7% and −2.4%. Further, the “Variation of diameter (μm)” value (second minus first diameter) is 2.2 μm and −0.3 μm and −1.2 μm.
